Structures can show the parent of a compound that is named as a salt. Where two headings read alike, the source gives them in different places.
Experiments:
[1] = molecular target: T1, SARS-CoV-2 PLpro (nsp3 1564–1878) (Severe acute respiratory syndrome coronavirus 2, UniProt P0DTD1); test: biochemical; set-up: FRET-quenched peptide (Pro3) cleavage by PLpro, 10 min pre-incubation, slope over 20 min, normalised to no-compound control; settings: read-out: % of control remaining
[2] = molecular target: T1, SARS-CoV-2 PLpro (nsp3 1564–1878); test: biochemical; set-up: FRET-quenched peptide (Pro3) cleavage by PLpro, 10 min pre-incubation, slope over 20 min, normalised to no-compound control; settings: read-out: % of control remaining; remark: listed apart in the source

O=c1ccn([C@@H]2O[C@H](COP(=O)(O)OP(=O)(O)OP(=O)(O)OP(=O)(O)OC[C@H]3O[C@@H](n4ccc(=O)[nH]c4=O)[C@H](O)[C@@H]3O)[C@@H](O)[C@H]2O)c(=O)[nH]1 [Diquafosol (tetrasodium)]
remaining activity at 1.25 µM ([1]; Well no.=8837, low concentration screen): 101%
remaining activity at 3.75 µM ([2]; Well no.=8095, high concentration screen): 100%
remaining activity at 3.75 µM ([2]; Well no.=8837, high concentration screen): 87.9%

O=C(O)c1cc(=O)c2c(OCC(O)COc3cccc4oc(C(=O)O)cc(=O)c34)cccc2o1 [Disodium Cromoglycate]
remaining activity at 1.25 µM ([1]; Well no.=1857, low concentration screen): 102%
remaining activity at 3.75 µM ([2]; Well no.=1857, high concentration screen): 100%

CC(C)N(CCC(C(N)=O)(c1ccccc1)c1ccccn1)C(C)C (centres unmarked) [Disopyramide phosphate salt]
remaining activity at 1.25 µM ([1]; Well no.=5508, low concentration screen): 105%
remaining activity at 3.75 µM ([2]; Well no.=5508, high concentration screen): 103%

CC(C)N(CCC(C(N)=O)(c1ccccc1)c1ccccn1)C(C)C (centres unmarked) [Disopyramide phosphate]
remaining activity at 1.25 µM ([1]; Well no.=436, low concentration screen): 97.6%
remaining activity at 3.75 µM ([2]; Well no.=436, high concentration screen): 98.8%

CC(C)N(CCC(C(N)=O)(c1ccccc1)c1ccccn1)C(C)C (centres unmarked) [Disopyramide]
remaining activity at 1.25 µM ([1]; Well no.=390, low concentration screen): 101%
remaining activity at 3.75 µM ([2]; Well no.=390, high concentration screen): 101%

CCCC(CCC)C(=O)O [Divalproex sodium]
remaining activity at 1.25 µM ([1]; Well no.=5341, low concentration screen): 97.2%
remaining activity at 3.75 µM ([2]; Well no.=5341, high concentration screen): 95.4%

CC(CCc1ccc(O)cc1)NCCc1ccc(O)c(O)c1 (centres unmarked) [Dobutamine hydrochloride]
remaining activity at 1.25 µM ([1]; Well no.=587, low concentration screen): 97.5%
remaining activity at 3.75 µM ([2]; Well no.=587, high concentration screen): 99.5%

CC(CCc1ccc(O)cc1)NCCc1ccc(O)c(O)c1 (centres unmarked) [Dobutamine.HCl]
remaining activity at 1.25 µM ([1]; Well no.=1781, low concentration screen): 101%
remaining activity at 3.75 µM ([2]; Well no.=1781, high concentration screen): 103%

CC1=C(C)C(=O)C(CCCCC#CCCCC#CCO)=C(C)C1=O [Docebenone]
remaining activity at 1.25 µM ([1]; Well no.=1917, low concentration screen): 90.8%
remaining activity at 3.75 µM ([2]; Well no.=1917, high concentration screen): 90.2%

CCCCCCCCCCCCCCCCCCCCCC(=O)O [Docosanoic acid]
remaining activity at 1.25 µM ([1]; Well no.=4456, low concentration screen): 100%
remaining activity at 3.75 µM ([2]; Well no.=4456, high concentration screen): 99.7%

CC/C=C\C/C=C\C/C=C\C/C=C\C/C=C\CCCCCC(=O)O [Docosapentaenoic acid]
remaining activity at 1.25 µM ([1]; Well no.=4347, low concentration screen): 105%
remaining activity at 1.25 µM ([1]; Well no.=4492, low concentration screen): 93.7%
remaining activity at 3.75 µM ([2]; Well no.=4347, high concentration screen): 105%
remaining activity at 3.75 µM ([2]; Well no.=4492, high concentration screen): 91.7%

CCCCC(CC)COC(=O)CC(C(=O)OCC(CC)CCCC)S(=O)(=O)O (centres unmarked) [Docusate Sodium]
remaining activity at 1.25 µM ([1]; Well no.=8348, low concentration screen): 94.3%
remaining activity at 3.75 µM ([2]; Well no.=8348, high concentration screen): 92.6%

CCCCCCCCCCCC(=O)O [Dodecanoic acid]
remaining activity at 1.25 µM ([1]; Well no.=4256, low concentration screen): 101%
remaining activity at 3.75 µM ([2]; Well no.=4256, high concentration screen): 94.8%

CN(CCOc1ccc(NS(C)(=O)=O)cc1)CCc1ccc(NS(C)(=O)=O)cc1 [Dofetilide]
remaining activity at 1.25 µM ([1]; Well no.=1659, low concentration screen): 108%
remaining activity at 3.75 µM ([2]; Well no.=1659, high concentration screen): 106%

O=C(O[C@@H]1C[C@@H]2C[C@H]3C[C@H](C1)N2CC3=O)c1c[nH]c2ccccc12 [Dolasetron (Mesylate hydrate)]
remaining activity at 1.25 µM ([1]; Well no.=7381, low concentration screen): 108%
remaining activity at 3.75 µM ([2]; Well no.=7381, high concentration screen): 98%

O=C(O[C@@H]1C[C@@H]2C[C@H]3C[C@H](C1)N2CC3=O)c1c[nH]c2ccccc12 [Dolasetron]
remaining activity at 1.25 µM ([1]; Well no.=1870, low concentration screen): 96.1%
remaining activity at 1.25 µM ([1]; Well no.=6235, low concentration screen): 106%
remaining activity at 3.75 µM ([2]; Well no.=1870, high concentration screen): 96.3%
remaining activity at 3.75 µM ([2]; Well no.=6235, high concentration screen): 105%

C/C(=C/C=C/[C@@H](C)C(=O)O)[C@H]1CN[C@H](C(=O)O)[C@H]1CC(=O)O [Domoic acid]
remaining activity at 1.25 µM [1]: 99.4%
remaining activity at 3.75 µM [2]: 102%

O=c1[nH]c2ccccc2n1CCCN1CCC(n2c(=O)[nH]c3cc(Cl)ccc32)CC1 [Domperidone]
remaining activity at 1.25 µM ([1]; Well no.=496, low concentration screen): 107%
remaining activity at 1.25 µM ([1]; Well no.=1598, low concentration screen): 96.5%
remaining activity at 1.25 µM ([1]; Well no.=7485, low concentration screen): 94%
remaining activity at 3.75 µM ([2]; Well no.=496, high concentration screen): 104%
remaining activity at 3.75 µM ([2]; Well no.=1598, high concentration screen): 99.4%
remaining activity at 3.75 µM ([2]; Well no.=7485, high concentration screen): 89.8%

NCCc1ccc(O)c(O)c1 [Dopamine (hydrochloride)]
remaining activity at 1.25 µM ([1]; Well no.=6268, low concentration screen): 96.9%
remaining activity at 3.75 µM ([2]; Well no.=6268, high concentration screen): 96.3%

NCCc1ccc(O)c(O)c1 [Dopamine hydrochloride]
remaining activity at 1.25 µM ([1]; Well no.=518, low concentration screen): 102%
remaining activity at 3.75 µM ([2]; Well no.=518, high concentration screen): 99.9%

C[C@@H](O)[C@H]1C(=O)N2C(C(=O)O)=C(S[C@@H]3CN[C@H](CNS(N)(=O)=O)C3)[C@H](C)[C@H]12 [Doripenem Hydrate]
remaining activity at 1.25 µM ([1]; Well no.=5203, low concentration screen): 103%
remaining activity at 3.75 µM ([2]; Well no.=5203, high concentration screen): 104%

CCN[C@H]1C[C@H](C)S(=O)(=O)c2sc(S(N)(=O)=O)cc21 [Dorzolamide HCl]
remaining activity at 1.25 µM ([1]; Well no.=5205, low concentration screen): 92.8%
remaining activity at 3.75 µM ([2]; Well no.=5205, high concentration screen): 95%

CCN[C@H]1C[C@H](C)S(=O)(=O)c2sc(S(N)(=O)=O)cc21 [Dorzolamide.HCl]
remaining activity at 1.25 µM ([1]; Well no.=1878, low concentration screen): 96.7%
remaining activity at 3.75 µM ([2]; Well no.=1878, high concentration screen): 96.1%

CCN1CC(CCN2CCOCC2)C(c2ccccc2)(c2ccccc2)C1=O (centres unmarked) [Doxapram HCl]
remaining activity at 1.25 µM ([1]; Well no.=5120, low concentration screen): 98.8%
remaining activity at 3.75 µM ([2]; Well no.=5120, high concentration screen): 96.1%

COc1cc2nc(N3CCN(C(=O)C4COc5ccccc5O4)CC3)nc(N)c2cc1OC (centres unmarked) [Doxazosin (mesylate)]
remaining activity at 1.25 µM ([1]; Well no.=8187, low concentration screen): 105%
remaining activity at 3.75 µM ([2]; Well no.=8187, high concentration screen): 102%

COc1cc2nc(N3CCN(C(=O)C4COc5ccccc5O4)CC3)nc(N)c2cc1OC (centres unmarked) [Doxazosin mesylate]
remaining activity at 1.25 µM ([1]; Well no.=730, low concentration screen): 98.2%
remaining activity at 3.75 µM ([2]; Well no.=730, high concentration screen): 93.7%

COc1cc2nc(N3CCN(C(=O)C4COc5ccccc5O4)CC3)nc(N)c2cc1OC (centres unmarked) [Doxazosin]
remaining activity at 1.25 µM ([1]; Well no.=1988, low concentration screen): 103%
remaining activity at 3.75 µM ([2]; Well no.=1988, high concentration screen): 104%

CN(C)CCC=C1c2ccccc2COc2ccccc21 [Doxepin hydrochloride]
remaining activity at 1.25 µM ([1]; Well no.=451, low concentration screen): 105%
remaining activity at 3.75 µM ([2]; Well no.=451, high concentration screen): 102%

C[C@H]1O[C@@H](n2cc(F)c(=O)[nH]c2=O)[C@H](O)[C@@H]1O [Doxifluridine]
remaining activity at 1.25 µM ([1]; Well no.=1990, low concentration screen): 101%
remaining activity at 1.25 µM ([1]; Well no.=8843, low concentration screen): 96.7%
remaining activity at 3.75 µM ([2]; Well no.=1990, high concentration screen): 103%
remaining activity at 3.75 µM ([2]; Well no.=8843, high concentration screen): 89.3%

Cn1c(=O)c2c(ncn2CC2OCCO2)n(C)c1=O [Doxofylline]
remaining activity at 1.25 µM ([1]; Well no.=2020, low concentration screen): 100%
remaining activity at 1.25 µM ([1]; Well no.=8323, low concentration screen): 99.7%
remaining activity at 3.75 µM ([2]; Well no.=2020, high concentration screen): 99.1%
remaining activity at 3.75 µM ([2]; Well no.=8323, high concentration screen): 94.2%

COc1cccc2c1C(=O)c1c(O)c3c(c(O)c1C2=O)C[C@@](O)(C(=O)CO)C[C@@H]3O[C@H]1C[C@H](N)[C@H](O)[C@H](C)O1 [Doxorubicin.HCl]
remaining activity at 1.25 µM ([1]; Well no.=1710, low concentration screen): 98.5%
remaining activity at 1.25 µM ([1]; Well no.=3235, low concentration screen): 105%
remaining activity at 3.75 µM ([2]; Well no.=1710, high concentration screen): 100%
remaining activity at 3.75 µM ([2]; Well no.=3235, high concentration screen): 105%
